# Reference: patent US20120083471A1, “Novel Compounds, Pharmaceutical Compositions Containing Same, Methods of Use for Same, and Methods for Preparing Same” (priority 2008, published 2012)
# Like-named read-outs stand apart in the source and are kept apart here.
# Experiments:
# FAO = FAO (SC 150 and Max) entries of the compound data sheets
# mtGPAT1 = molecular target: T1, mtGPAT1 (Mus musculus, UniProt Q61586); assay: In vitro mtGPAT inhibition: acylation of 14C-glycerol 3-phosphate with palmitoyl-CoA, scintillation counting; assay type: biochemical
# T1 construct: from tissue; host or cells: mitochondrial preparation
# T1 sequence (Q61586 1-827): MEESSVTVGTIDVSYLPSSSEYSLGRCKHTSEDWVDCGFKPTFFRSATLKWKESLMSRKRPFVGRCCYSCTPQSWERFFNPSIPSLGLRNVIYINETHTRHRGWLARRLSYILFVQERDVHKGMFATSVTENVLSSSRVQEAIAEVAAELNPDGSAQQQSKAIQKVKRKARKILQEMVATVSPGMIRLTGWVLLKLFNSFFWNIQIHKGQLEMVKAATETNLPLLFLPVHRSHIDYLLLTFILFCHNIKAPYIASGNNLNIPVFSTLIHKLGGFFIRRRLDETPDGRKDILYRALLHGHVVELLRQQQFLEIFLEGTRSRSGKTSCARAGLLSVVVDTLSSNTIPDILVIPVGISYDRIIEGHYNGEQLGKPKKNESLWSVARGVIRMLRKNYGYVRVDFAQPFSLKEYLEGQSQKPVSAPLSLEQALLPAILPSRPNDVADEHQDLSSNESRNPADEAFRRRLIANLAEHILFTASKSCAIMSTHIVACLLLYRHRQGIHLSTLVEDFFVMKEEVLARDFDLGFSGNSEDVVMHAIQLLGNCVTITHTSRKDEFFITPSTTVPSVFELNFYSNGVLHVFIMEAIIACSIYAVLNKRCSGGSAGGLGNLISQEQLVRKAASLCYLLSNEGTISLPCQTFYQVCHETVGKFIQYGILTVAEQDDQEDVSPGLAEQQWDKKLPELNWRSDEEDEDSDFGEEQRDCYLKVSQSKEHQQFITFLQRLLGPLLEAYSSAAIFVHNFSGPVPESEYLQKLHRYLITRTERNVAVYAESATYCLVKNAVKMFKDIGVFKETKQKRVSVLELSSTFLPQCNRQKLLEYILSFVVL
# Method: The compounds produced as described above were evaluated for their ability to inhibit the acylation of glycerol-3-phosphate in vitro. The acylation reaction between ^14C-labelled glycerol-3-phosphate and palmitoyl-CoA, initiated by adding mtGPAT, was measured in the presence of varying concentrations of the inhibitor by scintillation counting as described in more detail below.
# A mitochondrial preparation of glycerol 3-phosphate acyltransferase was added to the incubation mixture containing ^14C-labeled glycerol 3-phosphate, palmitoyl-CoA, and varying inhibitor concentrations to initiate the reaction. After ten min, the reaction was terminated by adding chloroform, methanol, and 1% perchloric acid. Five minutes later, more chloroform and perchloric acid were added, and the upper aqueous layer was removed. After washing three times with 1% perchloric acid, the organic layer was evaporated under nitrogen, and the amount of ^14C present was counted to determine the extent of reaction inhibition. Data points were recorded in triplicate, and IC50 values were calculated based on the amount of test inhibitor necessary to produce 50% of mtGPAT activity observed in the absence of inhibitor but in the presence of DMSO vehicle control.
# [1] = compounds 4a-t and 7a-t, read-out: GPAT IC50
# [2] = Table 1, sulfonamides 5a-f and 13a-f, triplicate, read-out: IC50 (μM) ± SD, In Vitro Anti-mtGPAT1 Activity
# [3] = Table 2, sulfonamides 15a-i and 17a-f, triplicate, read-out: IC50 (μM) ± SD, In Vitro Anti-mtGPAT1 Activity
# [4] = Table 3, sulfonamides 21a-c and 24a-f, triplicate, read-out: IC50 (μM) ± SD, In Vitro Anti-mtGPAT1 Activity
IC50 (mtGPAT1; [1]),Compound,FAO SC 150 (FAO),other results
18.4 µM,CCCCCCCCS(=O)(=O)Nc1cc(-c2ccc(Cl)cc2)ccc1C(=O)O,FAS (IC50) Not Tested CPT I Stim Not Tested FAO SC 150 Neg SA/MH (MIC) ug/ml,
16 µM,CCCCCCCCS(=O)(=O)Nc1cc(-c2cccc(Cl)c2)ccc1C(=O)O,FAS (IC50) Not Tested CPT I Stim Not Tested FAO SC 150 Neg SA/MH (MIC) ug/ml,
22.5 µM,CCCCCCCCS(=O)(=O)Nc1cc(-c2cccs2)ccc1C(=O)O,FAS (IC50) Not Tested CPT I Stim Not Tested FAO SC 150 Neg SA/MH (MIC) ug/ml,
65.8 µM,CCCCCCCCS(=O)(=O)Nc1cc(-c2cccnc2)ccc1C(=O)O,FAS (IC50) Not Tested CPT I Stim Not Tested FAO SC 150 Neg SA/MH (MIC) ug/ml,
17.4 µM,CCCCCCCCS(=O)(=O)Nc1cc(-c2ccc(-c3ccccc3)cc2)ccc1C(=O)O,FAS (IC50) Not Tested CPT I Stim Not Tested FAO SC 150 Neg SA/MH (MIC) ug/ml,
18 µM,CCCCCCCCS(=O)(=O)Nc1cc(-c2ccccc2-c2ccccc2)ccc1C(=O)O,FAS (IC50) Not Tested CPT I Stim Not Tested FAO SC 150 Neg SA/MH (MIC) ug/ml,
17.6 µM,CCCCCCCCS(=O)(=O)Nc1cc(-c2ccccc2OC)ccc1C(=O)O,FAS (IC50) Not Tested CPT I Stim Not Tested FAO SC 150 Neg SA/MH (MIC) ug/ml,
16 µM,CCCCCCCCS(=O)(=O)Nc1cc(-c2ccc(OC)cc2)ccc1C(=O)O,FAS (IC50) Not Tested CPT I Stim Not Tested FAO SC 150 Neg SA/MH (MIC) ug/ml,
13.4 µM,CCCCCCCCS(=O)(=O)Nc1ccc(-c2ccc(Cl)cc2)cc1C(=O)O,FAS (IC50) Not Tested CPT I Stim Not Tested FAO SC 150 Neg SA/MH (MIC) ug/ml,
13 µM,CCCCCCCCS(=O)(=O)Nc1ccc(-c2cccc(Cl)c2)cc1C(=O)O,FAS (IC50) Not Tested CPT I Stim Not Tested FAO SC 150 Neg SA/MH (MIC) ug/ml,
14.4 µM,CCCCCCCCS(=O)(=O)Nc1ccc(-c2ccccc2Cl)cc1C(=O)O,FAS (IC50) Not Tested CPT I Stim Not Tested FAO SC 150 Neg SA/MH (MIC) ug/ml,
28 µM,CCCCCCCCS(=O)(=O)Nc1ccc(-c2cccc(C(C)=O)c2)cc1C(=O)O,FAS (IC50) Not Tested CPT I Stim Not Tested FAO SC 150 Neg SA/MH (MIC) ug/ml,
702 µM,CCCCCCCCS(=O)(=O)Nc1ccc(-c2ccc(C(C)=O)cc2)cc1C(=O)O,FAS (IC50) Not Tested CPT I Stim Not Tested FAO SC 150 Neg SA/MH (MIC) ug/ml,
13.5 µM,CCCCCCCCS(=O)(=O)Nc1ccc(-c2ccccc2-c2ccccc2)cc1C(=O)O,FAS (IC50) Not Tested CPT I Stim Not Tested FAO SC 150 Neg SA/MH (MIC) ug/ml,
65.7 µM,CCCCCCCCS(=O)(=O)Nc1ccc(-c2ccc(-c3ccccc3)cc2)cc1C(=O)O,FAS (IC50) Not Tested CPT I Stim Not Tested FAO SC 150 Neg SA/MH (MIC) ug/ml,
23.4 µM,CCCCCCCCS(=O)(=O)Nc1ccc(-c2ccccc2OC)cc1C(=O)O,FAS (IC50) Not Tested CPT I Stim Not Tested FAO SC 150 Neg SA/MH (MIC) ug/ml,
19.1 µM,CCCCCCCCS(=O)(=O)Nc1ccc(-c2ccc(OC)cc2)cc1C(=O)O,FAS (IC50) Not Tested CPT I Stim Not Tested FAO SC 150 Neg SA/MH (MIC) ug/ml,
76.3 µM,CCCCCCCCS(=O)(=O)Nc1ccc(-c2cccnc2)cc1C(=O)O,FAS (IC50) Not Tested CPT I Stim Not Tested FAO SC 150 Neg SA/MH (MIC) ug/ml,
22.2 µM,CCCCCCCCS(=O)(=O)Nc1ccc(-c2cccs2)cc1C(=O)O,FAS (IC50) Not Tested CPT I Stim Not Tested FAO SC 150 Neg SA/MH (MIC) ug/ml,
57.7 µM,CCCCCCCCS(=O)(=O)Nc1ccc(-c2cccc(O)c2)cc1C(=O)O,,
20.6 µM,CCCCCCCCS(=O)(=O)Nc1ccc(-c2ccc(F)cc2)cc1C(=O)O,,
19 µM,CCCCCCCCS(=O)(=O)Nc1ccc(-c2cc(Cl)cc(Cl)c2)cc1C(=O)O,,
55.7 µM,CCCCCCCCS(=O)(=O)Nc1cc(-c2ccccc2F)ccc1C(=O)O,,
28.7 µM,CCCCCCCCS(=O)(=O)Nc1cc(-c2cccc(F)c2)ccc1C(=O)O,,
25.3 µM,CCCCCCCCS(=O)(=O)Nc1cc(-c2ccc(F)cc2)ccc1C(=O)O,,
19.2 µM,CCCCCCCCS(=O)(=O)Nc1cc(-c2cc(Cl)cc(Cl)c2)ccc1C(=O)O,,

IC50 (mtGPAT1; [1]),Compound,FAO SC 150 (FAO),other results
18.3 µM,CCCCCCCCS(=O)(=O)Nc1cc(-c2ccc(Cl)cc2Cl)ccc1C(=O)O,,
62.6 µM,CCCCCCCCS(=O)(=O)Nc1cc(-c2ccccc2O)ccc1C(=O)O,,
55.5 µM,CCCCCCCCS(=O)(=O)Nc1cc(-c2cccc(O)c2)ccc1C(=O)O,,
60.9 µM,CCCCCCCCS(=O)(=O)Nc1ccc(-c2ccc(O)cc2)cc1C(=O)O,,
66.1 µM,CCCCCCCCS(=O)(=O)Nc1cc(-c2ccc(O)cc2)ccc1C(=O)O,,
,"CCCCCS(=O)(=O)Nc1ccccc1CP(=O)(O)O [Compound 13a, 2-(Pentylsulfonamido)benzylphosphonic acid]",,IC50 (mtGPAT1; [2]): 41.4 ± 8.4 µM
,"CCCCCCCCCS(=O)(=O)Nc1ccccc1CP(=O)(O)O [Compound 13b, 2-(Nonylsulfonamido)benzylphosphonic acid]",,IC50 (mtGPAT1; [2]): 30.6 µM
,"CCCCCCCCCS(=O)(=O)Nc1ccc(CP(=O)(O)O)cc1 [Compound 13f, 4-(Nonylsulfonamido)benzylphosphonic acid]",,IC50 (mtGPAT1; [2]): 30.7 µM
,"CCCCCCCCCS(=O)(=O)Nc1ccc(C(=O)O)cc1 [Compound 15a, 4-(Nonylsulfonamido)benzoic acid]",,IC50 (mtGPAT1; [3]): 29.1 ± 4.3 µM
,"O=C(O)c1ccc(NS(=O)(=O)c2ccccc2)cc1 [Compound 15b, 4-(Phenylsulfonamido)benzoic acid]",,IC50 (mtGPAT1; [3]): 41.9 ± 5.3 µM
,"O=C(O)c1ccc(NS(=O)(=O)c2ccc(Cl)cc2)cc1 [Compound 15c, 4-(4-Chlorophenylsulfonamido)benzoic acid]",,IC50 (mtGPAT1; [3]): 33.7 ± 1.3 µM
,"O=C(O)c1cccc(NS(=O)(=O)c2ccccc2)c1 [Compound 15e, 3-(Phenylsulfonamido)benzoic acid]",,IC50 (mtGPAT1; [3]): 38.3 ± 7.6 µM
,"O=C(O)c1cccc(NS(=O)(=O)c2ccc(Cl)cc2)c1 [Compound 15f, 3-(4-Chlorophenylsulfonamido)benzoic acid]",,IC50 (mtGPAT1; [3]): 23.6 ± 1.2 µM
,"O=C(O)c1ccccc1NS(=O)(=O)c1ccc(Cl)cc1 [Compound 15i, 2-(4-Chlorophenylsulfonamido)benzoic acid]",,IC50 (mtGPAT1; [3]): 33.5 ± 2.5 µM
,"O=C(O)c1ccc(NS(=O)(=O)Cc2ccccc2)cc1 [Compound 17a, 4-(Phenylmethylsulfonamido)benzoic acid]",,IC50 (mtGPAT1; [3]): 64.5 ± 11.6 µM
,"O=C(O)c1ccc(NS(=O)(=O)CCc2ccccc2)cc1 [Compound 17b, 4-(2-Phenylethylsulfonamido)benzoic acid]",,IC50 (mtGPAT1; [3]): 63 ± 12.9 µM
,"O=C(O)c1cccc(NS(=O)(=O)Cc2ccccc2)c1 [Compound 17c, 3-(Phenylmethylsulfonamido)benzoic acid]",,IC50 (mtGPAT1; [3]): 52.1 ± 9 µM
,"O=C(O)c1cccc(NS(=O)(=O)CCc2ccccc2)c1 [Compound 17d, 3-(2-Phenylethylsulfonamido)benzoic acid]",,IC50 (mtGPAT1; [3]): 50.3 ± 4.4 µM
,"O=C(O)c1ccccc1NS(=O)(=O)Cc1ccccc1 [Compound 17e, 2-(Phenylmethylsulfonamido)benzoic acid]",,IC50 (mtGPAT1; [3]): 40.7 ± 1.2 µM
,"O=C(O)c1ccccc1NS(=O)(=O)CCc1ccccc1 [Compound 17f, 2-(2-Phenylethylsulfonamido)benzoic acid]",,IC50 (mtGPAT1; [3]): 46.4 ± 4.5 µM
,"CCCCCCCCS(=O)(=O)Nc1ccc(P(=O)(O)O)cc1 [Compound 21a, 4-(Octylsulfonamido)phenylphosphonic acid]",,IC50 (mtGPAT1; [4]): 33.3 ± 3.8 µM
,"CCCCCCCCS(=O)(=O)Nc1cccc(P(=O)(O)O)c1 [Compound 21b, 3-(Octylsulfonamido)phenylphosphonic acid]",,IC50 (mtGPAT1; [4]): 25.3 ± 5.4 µM
,"CCCCCCCCS(=O)(=O)Nc1ccccc1P(=O)(O)O [Compound 21c, 2-(Octylsulfonamido)phenylphosphonic acid]",,IC50 (mtGPAT1; [4]): 25.7 ± 2.5 µM
,"CS(=O)(=O)Nc1ccccc1C(=O)O [Compound 24a, 2-(Methylsulfonamido)benzoic acid]",,IC50 (mtGPAT1; [4]): 28.6 ± 4.6 µM
,"CCCCCCCCCS(=O)(=O)Nc1ccc(Cl)cc1C(=O)O [Compound 24d, 5-Chloro-2-(nonylsulfonamido)benzoic acid]",,IC50 (mtGPAT1; [4]): 11.5 ± 0.7 µM
